Source: patent publication US20050203068A1, “Pharmaceutical compositions containing water-soluble prodrugs of propofol and methods of administering same” (priority 2002, published 2005)
Structures can show the parent of a compound that is named as a salt.

Experiments:
[1] = tested on: healthy male volunteers; assay: Target controlled infusion (TCI) of AQUAVAN vs propofol: EEG, loss/recovery of consciousness and corneal reflex; type: in vivo, human; details: for Time to LOCR (loss of corneal reflex) / Time to ROC (recovery of consciousness) / Time to ROCR (recovery of corneal reflex) / Time to LOC (loss of consciousness): TCI infusion 60 min, propofol targets 5, 3, 1.5 micrograms/ml; for Time to LOC (loss of consciousness): time after start of infusion
Experimental: This example compares the effects of target controlled infusions (TCI) of propofol and of O-phosphonooxymethyl propofol disodium salt (AQUAVAN™) on electrical brain activity and consciousness of healthy male volunteers. A sterile solution was prepared in a 20 mL vial, with 20 mg/mL of AQUAVAN™ and 0.4 wt % NaCl. The pH of the solution was adjusted to 8.6±0.4 with HCl or NaOH, as needed.
Nine male volunteers (age 19 to 35 yrs., body wt. 70 to 86 kg) received propofol as a target controlled infusion (TCI) with three different target concentrations over 60 min. After a washout period of 14 days, the same volunteers received a TCI infusion of AQUAVAN™ with identical propofol target concentrations (crossover design). The infusion scheme was a linear increasing propofol concentration up to 5 micrograms/ml for the first 20 minutes, a target of 3 micrograms/ml for the following 20 minutes, and a target propofol plasma concentration of 1.5 micrograms/ml for the following 20 minutes. At 60 minutes, the infusion was stopped.
The EEG was recorded using the CATEEM® system and the data analysis was based on the lead O1-CZ. All subjects were tested every 1.5 minutes for Loss and Recovery of Consciousness (LOC and ROC), and for Loss and Recovery of Corneal Reflex (LOCR and ROCR). Arterial blood samples were drawn at predetermined times up to 240 minutes after start of the infusion. The AQUAVAN™ and propofol plasma concentrations were measured with an LC/MS/MS validated assay and an HPLC-FL validated assay (see FIG. 1).

[2] = tested on: healthy subjects; assay: Single bolus AQUAVAN vs equipotent rapid infusion of propofol: anesthetic effect (BIS, LOC, ROC, DOU), adverse events; type: in vivo, human; details: for Pain on injection, incidence / Apnea, incidence / Initial increase in heart rate (HR>90 bpm), incidence: 24 subjects; for Pain on injection, incidence: all cohorts; for Apnea, incidence: dose-dependent; for Initial increase in heart rate (HR>90 bpm), incidence: following administration; for Initial increase in heart rate (HR>90 bpm), incidence / Time of BISpeak (lowest BIS level): p<0.05; for Time of BISpeak (lowest BIS level): AQUAVAN bolus 5-25 mg/kg, propofol rapid infusion 300 ml/h to similar BISpeak; for DOU (duration of unconsciousness) / Time to LOC / Time to ROC: n=6, mean ± SD
Experimental: This example compares the pharmacodynamics of propofol when administered as a single, bolus dose of the prodrug O-phosphonooxymethyl-propofol di-sodium salt (AQUAVAN™) in accordance with the present invention, to the pharmacodynamics of propofol when administered as such. A sterile solution, the “study formulation,” was prepared in a 20 mL vial, with 20 mg/mL of AQUAVAN™ and 0.4 wt % NaCl. The pH of the solution was adjusted to 8.6±0.4 with HCl or NaOH, as needed.
(§1) Twenty-four healthy subjects (all ASA 1, 25±5 yrs., 70±8 kg) were randomized into 4 cohorts, with 3 male and 3 female in each. Each of the four cohorts was given a single dose of the study formulation described in Table 1 above (5, 10, 20, and 25 mg/kg, AQUAVAN™ respectively). Anesthetic effect was measured continuously using a BIS-XP monitor (Aspect Medical Systems, Natick, Mass.). The lowest BIS level (BISpeak) was recorded. One week later, propofol was given to the same individuals at a rapid infusion rate of 300 ml/h to reach a similar BISpeak. Heart rate (HR), O2 saturation, systolic (SBP) and diastolic (DBP) blood pressure were monitored non-invasively. Incidence and duration of apnea, loss (LOC) and return (ROC) of consciousness and duration of unconsciousness (DOU) were measured with the OAA/S score. Adverse events were recorded. Statistical analysis was performed using Wilcoxon Signed Ranks Test, Mann-Whitney-U test, Chi-Square test and Pearson correlation where appropriate.

[3] = tested on: patients; details: anesthetic induction doses of propofol; Bryson et al.; cited from earlier work
[4] = tested on: healthy volunteers; assay: TCI infusion of AQUAVAN over 2 hours: alertness/sedation (OAA/S, BIS), haemodynamics, propofol plasma concentration
Experimental: A sterile solution of AQUAVAN™ was prepared as described for Example 1, above.
Six female (28±3 yrs, 57±4 kg body weight) and 6 male (32±6 yrs., 78±9 kg body weight) volunteers were studied. For a period of 2 hours, a TCI infusion of AQUAVAN™ was administered to provide adequate sedation. The initially selected target concentration of propofol from AQUAVAN™ was 1.8 μg/ml. Sedation was rated as adequate if according to a modified Observers Assessment of Alertness and Sedation Scale (OAA/S) the OAA/S scale value was 2 to 3. After 60 minutes, the target concentration was increased to 2.4 or 3 μg/ml if the OAA/S scale value was 4 or 5, respectively, or reduced to 1.4 μg/ml if the OAA/S scale value was 0 to 1. With an Aspect® A-1000 monitor and two frontal leads the BIS values were recorded. The ECG, blood pressure, heart rate, SaO2 and GPI as well as propofol plasma concentrations were measured. All values are given as mean±standard deviation.

[5] = tested on: healthy subjects; assay: Single bolus AQUAVAN, six cohorts: lowest OAA/S score and duration of sedation; type: in vivo, human
Experimental: as §1
In addition to induction of unconsciousness and duration of general anesthesia (see above), the response of the study subjects to AQUAVAN™ was also examined with regard to sedation. For this purpose, two additional cohorts (n=6 each) were dosed with 15 and 30 mg/kg of AQUAVAN™ as described above. For subjects in all six cohorts, the lowest OAA/S score achieved after AQUAVAN™ administration and the duration of sedation were recorded, with an OAA/S score of 5 indicating no sedation, scores ranging from 4-2 indicating increasingly deep sedated states, and a score of 1 indicating loss of consciousness (LOC)(but allowing for an undirected response to painful tactile stimuli). […] A conscious sedated state typically preceded and followed a period of unconsciousness in subjects who reached LOC. “Mean duration of sedation/LOC” in Table 4 refers to the total time interval from onset of sedation through LOC to recovery of alertness (no sedation).

[6] = Cohort 3 (20 mg/kg AQUAVAN bolus; propofol rapid infusion to similar BISpeak)
[7] = Cohort 4 (25 mg/kg AQUAVAN bolus; propofol rapid infusion to similar BISpeak)

CC(C)c1cccc(C(C)C)c1O [propofol, 2,6-diisopropylphenol]
Time to LOCR (loss of corneal reflex) [1]: 19 ± 6 min | Time to ROC (recovery of consciousness) [1]: 47 ± 10 min | Time to ROCR (recovery of corneal reflex) [1]: 32 ± 10 min | Time to LOC (loss of consciousness) [1]: 13 ± 2 min | Pain on injection, incidence [2]: 10 of the 24 | Apnea, incidence [2]: 10 of 24 | Initial increase in heart rate (HR>90 bpm), incidence [2]: 4 of the 24 | Time of BISpeak (lowest BIS level) [2]: 358 ± 315 s | DOU (duration of unconsciousness) [2, 6]: 416 ± 94 s | Time to LOC [2, 6]: 184 ± 63 s | Time to ROC [2, 6]: 600 ± 105 s | DOU (duration of unconsciousness) [2, 7]: 748 ± 245 s | Time to LOC [2, 7]: 208 ± 84 s | Time to ROC [2, 7]: 956 ± 294 s | Respiratory consequences, including reduction in tidal volume and apnea: share of patients [3]: up to 83%

CC(C)c1cccc(C(C)C)c1OCOP(=O)(O)O [AQUAVAN, O-phosphonooxymethyl propofol disodium salt]
Time to LOCR (loss of corneal reflex) [1]: 16 ± 5 min | Time to ROC (recovery of consciousness) [1]: 73 ± 13 min | Time to ROCR (recovery of corneal reflex) [1]: 46 ± 15 min | Time to LOC (loss of consciousness) [1]: 9 ± 2 min | Decrease of Median Power Frequency (MPF) in the EEG ([1]; plasma propofol from AQUAVAN compared to plasma propofol from propofol, comparable plasma concentrations): greater decrease of the MPF | OAA/S scale value after 60 minutes ([4]; TCI infusion, initial propofol target 1.8 μg/ml, mean±SD): 3.7±1.1 | Time after stopping the infusion to recovery to OAA/S scale value of 5 ([4]; after 2 hour TCI infusion, mean±SD): 18 ± 3 min | Systolic BP after decrease ([4]; decreased from 134±14): 106±10 mm Hg | BIS value ([4]; during the first hour of infusion (96±2 before infusion)): 74±13 | BIS value ([4]; during the second hour of infusion): 64±14 | Heart rate increase ([4]; from 64±14 to 72±8): 13% | Systolic BP decrease ([4]; from 134±14 to 106±10 mm Hg): 21% | Heart rate after increase ([4]; increased from 64±14): 72±8 | Time after TCI target change until OAA/S scale value in target range of 2 to 3 ([4]; target changed at 60 minutes, mean±SD): 4.2 ± 2.5 min | Loss of consciousness (LOC) reached ([2]; 5 mg/kg single bolus cohort): no LOC was reached | Loss of consciousness (LOC) reached ([2]; 10 mg/kg single bolus cohort): no LOC was reached | Loss of consciousness (LOC) reached ([2]; 20 mg/kg single bolus cohort): all subjects reached LOC | Loss of consciousness (LOC) reached ([2]; 25 mg/kg single bolus cohort): all subjects reached LOC | Pain on injection, incidence [2]: only reported for propofol | Apnea, incidence [2]: 7 of 24 | Initial increase in heart rate (HR>90 bpm), incidence [2]: 17 of the 24 | Time of BISpeak (lowest BIS level) [2]: 630 ± 225 s | DOU (duration of unconsciousness) [2, 6]: 1507 ± 914 s | Time to LOC [2, 6]: 157 ± 69 s | Time to ROC [2, 6]: 1664 ± 920 s | DOU (duration of unconsciousness) [2, 7]: 2703 ± 267 s | Time to LOC [2, 7]: 162 ± 40 s | Time to ROC [2, 7]: 2865 ± 245 s | Duration - range ([5]; Cohort 1: 5 mg/kg bolus): 0 to 16 min | Mean duration of sedation/LOC ([5]; Cohort 1: 5 mg/kg bolus): 4.2 min | Duration - range ([5]; Cohort 2: 10 mg/kg bolus): 0 to 24 min | Mean duration of sedation/LOC ([5]; Cohort 2: 10 mg/kg bolus): 14 min | Duration - range ([5]; Cohort 3: 20 mg/kg bolus): 22 to 45 min | Mean duration of sedation/LOC ([5]; Cohort 3: 20 mg/kg bolus): 39.5 min | Duration - range ([5]; Cohort 4: 25 mg/kg bolus): 42 to 78 min | Mean duration of sedation/LOC ([5]; Cohort 4: 25 mg/kg bolus): 57.8 min | Duration - range ([5]; Cohort 5: 15 mg/kg bolus): 18 to 34 min | Lowest OAA/S Score (subjects - score) ([5]; Cohort 5: 15 mg/kg bolus): 6/6 - 1 (LOC) | Mean duration of sedation/LOC ([5]; Cohort 5: 15 mg/kg bolus): 22.6 min | Duration - range ([5]; Cohort 6: 30 mg/kg bolus): 43 to 96 min | Mean duration of sedation/LOC ([5]; Cohort 6: 30 mg/kg bolus): 54.3 min | State observed after bolus ([5]; bolus doses of 15 mg/kg and higher): induced unconscious states that varied in duration | State observed after bolus ([5]; dose ranges of 5-10 mg/kg): Conscious sedation, but no loss of consciousness
